Biological target: SHP2 (Homo sapiens (Human), UniProt Q06124)
Assay: SHP2 Allosteric Inhibition Assay
Type: biochemical
Details: 0.5 nM SHP2 activated with 0.5 μM peptide IRS1_pY1172(dPEG8)pY1222, surrogate substrate DiFMUP, fluorescence
Description: SHP2 Allosteric Inhibition Assay SHP2 is allosterically activated through binding of bis-tyrosyl-phorphorylated peptides to its Src Homology 2 (SH2) domains. The latter activation step leads to the release of the auto-inhibitory interface of SHP2, which in turn renders the SHP2 protein tyrosine phosphatase (PTP) active and available for substrate recognition and reaction catalysis. The catalytic activity of SHP2 was monitored using the surrogate substrate DiFMUP in a prompt fluorescence assay format. […] After 30-60 minutes incubation at 25° C., the surrogate substrate DiFMUP (Invitrogen, cat# D6567) was added to the reaction and incubated at 25° C. for 30 minutes. […] The inhibitor dose response curves were analyzed using normalized IC50 regression curve fitting with control based normalization.

Row | SMILES | IC50 [nM]
1 | Nc1nc(N2CCC3(CCC3N)CC2)cnc1-c1cccc(Cl)c1Cl (stereo not drawn) [Example 16] | 145
2 | CO[C@H]1C[C@@H](N)C2(CCN(c3cnc(Sc4cccnc4C(F)(F)F)c(N)n3)CC2)C1 [Example 48] | 9
3 | NC(=O)c1nc(Sc2cccnc2C(F)(F)F)c(N)nc1N1CCC2(CC[C@@H]2N)CC1 [Example 22] | 53
4 | Nc1nc(N2CCC3(CCCC3N)CC2)cnc1Sc1cccc(Cl)c1Cl (stereo not drawn) [Example 2] | 25
5 | C[C@@H]1C[C@H](N)C2(CCN(c3cnc(Sc4cccnc4C(F)(F)F)c(N)n3)CC2)C1 [Example 62] | 100
6 | Nc1nc(N2CCC3(CCC[C@H]3N)CC2)cnc1Sc1ccnc(Cl)c1Cl [Example 30, (R)-8-(6-amino-5-((2,3-dichloropyridin-4-yl)thio)pyrazin-2-yl)-8-azaspiro[4.5]decan-1-amine] | 3
7 | Nc1nc(N2CCC3(CC2)COC[C@H]3N)cnc1Sc1cccnc1Cl [Example 54] | 10
8 | CC(C)C(=O)O[C@@H]1C[C@@H](N)C2(CCN(c3cnc(Sc4ccnc(Cl)c4Cl)c(N)n3)CC2)C1 [Example 66] | 65
9 | Nc1cc(Sc2ncc(N3CCC4(CCC[C@H]4N)CC3)nc2N)c(Cl)cn1 [Example 51] | 10
10 | Nc1nc(N2CCC3(CC2)COC[C@@H]3N)cnc1Sc1ccnc(N)c1Cl [Example 53] | 298
11 | Nc1nc(N2CCC3(CC[C@@H]3N)CC2)cnc1Sc1ccnc(N)c1Cl [Example 27] | 42
12 | Nc1nc(N2CCC3(CCCCC3N)CC2)cnc1-c1cccc(Cl)c1Cl (stereo not drawn) [Example 6] | 74
13 | Nc1nc(N2CCC3(CC2)C[C@H](O)C[C@H]3N)cnc1Sc1ccnc(Cl)c1Cl [Example 57] | 3
14 | Nc1cccc(Sc2ncc(N3CCC4(CCC[C@H]4N)CC3)nc2N)c1Cl [Example 32, (R)-8-(6-amino-5-((3-amino-2-chlorophenyl)thio)pyrazin-2-yl)-8-azaspiro[4.5]decan-1-amine] | 11
15 | Nc1nc(N2CCC3(CC2)COC[C@H]3N)cnc1Sc1ccnc(F)c1Cl [Example 64] | 13
16 | Nc1nc(N2CCC3(CC2)CC(F)(F)CC3N)cnc1Sc1cccnc1C(F)(F)F (stereo not drawn) [Example 47] | 21
17 | Nc1nc(N2CCC3(CCCCC3N)CC2)cnc1Sc1cccc(Cl)c1Cl (stereo not drawn) [Example 4] | 32
18 | Nc1nc(N2CCC3(CCC[C@H]3N)CC2)cnc1Sc1cccc(Cl)c1Cl [Example 3] | 10
19 | NC(=O)c1cc(Sc2cccnc2C(F)(F)F)c(N)nc1N1CCC2(CCC[C@H]2N)CC1 [Example 39, (R)-6-amino-2-(1-amino-8-azaspiro[4.5]decan-8-yl)-5-((2-(trifluoromethyl)pyridin-3-yl)thio)nicotinamide] | 118
20 | Nc1nc(N2CCC3(CC2)COC[C@H]3N)cnc1Sc1ccnnc1Cl [Example 55] | 73
21 | Nc1cccc(Sc2ncc(N3CCC4(CC[C@@H]4N)CC3)nc2N)c1Cl [Example 15] | 16

The next lines start with the values.

Row | IC50 [nM] | SMILES
22 | 380 | Nc1nc(N2CCC3(CC2)CCC(F)(F)C3N)cnc1Sc1cccnc1C(F)(F)F (racemic) [Example 82, racemic-8-(6-amino-5-((2-(trifluoromethyl)pyridin-3-yl)thio)pyrazin-2-yl)-2,2-difluoro-8-azaspiro[4.5]decan-1-amine]
23 | 4 | Nc1cc(Sc2ncc(N3CCC4(CC3)C[C@H](O)C[C@H]4N)nc2N)c(Cl)c(Cl)n1 [Example 90]
24 | 10 | Nc1nc(N2CCC3(CC2)C[C@H](F)C[C@H]3N)cnc1Sc1ccnc(N)c1Cl [Example 92]
25 | 78 | Nc1nc(N2CCC3(CCC[C@H]3N)CC2)cnc1Sc1ccnnc1Cl [Example 76]
26 | 10 | C[C@H]1CCC2(CCN(c3cnc(Sc4cccnc4C(F)(F)F)c(N)n3)CC2)[C@@H]1N (single isomer, unassigned) [Example 86a]
27 | 56 | NC1=NC2(CCN(c3cnc(Sc4cccnc4C(F)(F)F)c(N)n3)CC2)CO1 [Example 74]
28 | 42 | Nc1nc(N2CCC3(CCC[C@H]3N)CC2)cnc1Sc1ccncc1C(F)(F)F [Example 80]
29 | 10 | C[C@@H]1CCC2(CCN(c3cnc(Sc4cccnc4C(F)(F)F)c(N)n3)CC2)[C@@H]1N (single isomer, unassigned) [Example 86b]

Same assay, conditions: unit given as M; TFA salt before chiral separation

Row | IC50 [nM] | SMILES
30 | 1 | CC1CCC2(CCN(c3cnc(Sc4cccnc4C(F)(F)F)c(N)n3)CC2)[C@@H]1N (stereo partly drawn) [Example 86a/b, (1R)-8-(6-amino-5-((2-(trifluoromethyl)pyridin-3-yl)thio)pyrazin-2-yl)-2-methyl-8-azaspiro[4.5]decan-1-amine]
